In patent US20210261642A1, “SOLUBILITY OF GLP-1 PEPTIDE” (Novo Nordisk A/S, priority 2017, published 2021):

Test: Assay (I): Determination of Solubility (96-well plate, pH 3.0-11.0, organic solvent 0-70% w/w, UV absorption at 280 nm)
Format: physicochemical
Details: for Peptide concentration after 180 min / Peptide concentration after 24 h / Peptide concentration after 5 min: Method 1; for GLP-1 peptide concentration: Method 2 (precipitation), MeCN 57.3% w/w, 5° C.
Method: Assay (I): Determination of Solubility
96-Well Plate Preparation
96-well plates containing target peptide in a solid form were prepared in one of two ways:
Method 1 (evaporation): Addition of 100 μl stock solution of said peptide at a concentration of 4-6 mg/ml to each well of a 96-well half area plate (150 μl well size). Subsequently the solvent was evaporated by applying a vacuum until the solvent was completely removed.
Method 2 (precipitation): Addition of a certain volume of a stock solution of said peptide containing to each well of a 96-well half area plate followed by the addition of a certain volume of concentrated phosphoric acid to obtain a pH of 4.6 followed by addition of a certain volume of ethanol resulting in a final ethanol concentration of 20% v/v. Subsequently the plate was stored at 4° C. for 1 h and then centrifuged at 4,000 rpm for 20 min. Finally the supernatant was removed. The concentration of the stock solution was chosen in a way that the final amount of peptide after supernatant removal was >0.4 mg per well.
In both cases the stock solution was prepared by adding de-ionized water to a certain amount of powder of said peptide followed by a stepwise addition of small amounts of a concentrated sodium hydroxide solution until said peptide was completely in solution.
To determine solubility of a target peptide at different pH and organic solvent concentrations, two different buffer systems were used in independent experiments to cover the whole range from pH 3.0 to pH 11.0. Buffer system 1 covers pH 3.0-7.5 and buffer system 2 covers pH 7.5-11.0. For each buffer system 96 different solvent compositions were premixed in the following way: • 1. A low pH buffer (adjusted to either pH 3.0 or pH 7.5) and a high pH buffer (adjusted to either pH 7.5 or pH 11.0) were mixed at 8 different ratios to obtain values between pH 3.0 and pH 7.5 or pH 7.5 and pH 11.0, respectively. The total volume after mixing was 300 μl. • 2. 12 different amounts of organic solvent were then added to these buffers to obtain organic solvent (e.g. ethanol) concentrations between 0 and 70% w/w. • 3. Water was then added to obtain a total weight of 1.0 g of solvent in each well.
After preparing the 96 different solvent systems, 100 μl of each system was transferred to the 96-well plate containing the solid form of the target peptide (prepared as described in the section “96-well plate preparation”). The plate was then stored at a given temperature (between 5° C. and 70° C.) for a given time on a rotating shaker set to 400 rpm. At regular time intervals the plate was centrifuged (4,000 rpm for 10 min) and a 10 μl sample was taken from each well. The samples were then analysed by UV absorption at 280 nm for peptide quantification. Peptide concentration results are given as UV absorption at 280 nm of the sample subtracted UV absorption at 280 nm of a well comprising 10 μl water.
The buffers used were as follows: • Buffer system 1 (for the pH range from pH 3.0-7.5)
• Buffer system 2 (for the pH ranae from pH 7.5-11.0)
Solubility of liraglutide was determined using Assay (I) described herein. Liraglutide was prepared using Method 1 (evaporation) or Method 2 (precipitation) as described in subsection “96-well plate preparation”.

CCCCCCCCCCCCCCCC(=O)N[C@@H](CCC(=O)NCCCC[C@H](NC(=O)[C@H](C)NC(=O)[C@H](C)NC(=O)[C@H](CCC(N)=O)NC(=O)CNC(=O)[C@H](CCC(=O)O)NC(=O)[C@H](CC(C)C)NC(=O)[C@H](Cc1ccc(O)cc1)NC(=O)[C@H](CO)NC(=O)[C@H](CO)NC(=O)[C@@H](NC(=O)[C@H](CC(=O)O)NC(=O)[C@H](CO)NC(=O)[C@@H](NC(=O)[C@H](Cc1ccccc1)NC(=O)[C@@H](NC(=O)CNC(=O)[C@H](CCC(=O)O)NC(=O)[C@H](C)NC(=O)[C@@H](N)Cc1cnc[nH]1)[C@@H](C)O)[C@@H](C)O)C(C)C)C(=O)N[C@@H](CCC(=O)O)C(=O)N[C@@H](Cc1ccccc1)C(=O)N[C@H](C(=O)N[C@@H](C)C(=O)N[C@@H](Cc1c[nH]c2ccccc12)C(=O)N[C@@H](CC(C)C)C(=O)N[C@H](C(=O)N[C@@H](CCCNC(=N)N)C(=O)NCC(=O)N[C@@H](CCCNC(=N)N)C(=O)NCC(=O)O)C(C)C)[C@@H](C)CC)C(=O)O [liraglutide, Arg34,Lys26-(N-epsilon-(gamma-L-glutamyl(N-alfa-hexadecanoyl)))-GLP-1(7-37)]
3.4 mg/mL: GLP-1 peptide concentration (pH 9.00, 180 min, after removal of outliers) | GLP-1 peptide concentration (pH 9.00, 180 min, before removal of outliers)
1.4 mg/mL: Peptide concentration after 24 h (MeCN 63.6% w/w, pH 9.5, 5° C.) | GLP-1 peptide concentration (pH 9.00, 24 h, after removal of outliers) | GLP-1 peptide concentration (pH 9.00, 24 h, before removal of outliers)
0.5 mg/mL: Peptide concentration after 180 min (MeCN 63.6% w/w, pH 9.5, 5° C.) | Peptide concentration after 5 min (MeCN 63.6% w/w, pH 11.0, 5° C.) | Peptide concentration after 24 h (MeCN 70.0% w/w, pH 6.2, 5° C.) | Peptide concentration after 24 h (MeCN 70.0% w/w, pH 6.9, 5° C.) | Peptide concentration after 24 h (MeCN 70.0% w/w, pH 9.5, 5° C.) | Peptide concentration after 24 h (MeCN 70.0% w/w, pH 11.0, 5° C.) | GLP-1 peptide concentration (pH 9.50, 5 min, after removal of outliers)
0.9 mg/mL: Peptide concentration after 24 h (MeCN 70.0% w/w, pH 9.0, 5° C.)
0.3 mg/mL: Peptide concentration after 180 min (MeCN 63.6% w/w, pH 10.0, 5° C.) | Peptide concentration after 180 min (MeCN 63.6% w/w, pH 10.5, 5° C.) | Peptide concentration after 180 min (MeCN 70.0% w/w, pH 5.6, 5° C.) | Peptide concentration after 180 min (MeCN 70.0% w/w, pH 6.2, 5° C.) | Peptide concentration after 180 min (MeCN 70.0% w/w, pH 6.9, 5° C.) | Peptide concentration after 5 min (MeCN 70.0% w/w, pH 7.5, 5° C.) | Peptide concentration after 5 min (MeCN 70.0% w/w, pH 8.0, 5° C.) | Peptide concentration after 180 min (MeCN 70.0% w/w, pH 9.5, 5° C.) | Peptide concentration after 180 min (MeCN 70.0% w/w, pH 10.0, 5° C.)
0.6 mg/mL: Peptide concentration after 24 h (MeCN 63.6% w/w, pH 10.5, 5° C.) | Peptide concentration after 180 min (MeCN 63.6% w/w, pH 11.0, 5° C.) | Peptide concentration after 24 h (MeCN 70.0% w/w, pH 8.0, 5° C.) | GLP-1 peptide concentration (pH 9.00, 5 min, after removal of outliers) | GLP-1 peptide concentration (pH 9.00, 5 min, before removal of outliers)
0.2 mg/mL: Peptide concentration after 5 min (MeCN 63.6% w/w, pH 10.0, 5° C.) | Peptide concentration after 5 min (MeCN 63.6% w/w, pH 10.5, 5° C.) | Peptide concentration after 5 min (MeCN 70.0% w/w, pH 5.6, 5° C.) | Peptide concentration after 5 min (MeCN 70.0% w/w, pH 6.2, 5° C.) | Peptide concentration after 5 min (MeCN 70.0% w/w, pH 6.9, 5° C.) | Peptide concentration after 5 min (MeCN 70.0% w/w, pH 8.5, 5° C.) | Peptide concentration after 5 min (MeCN 70.0% w/w, pH 9.0, 5° C.) | Peptide concentration after 5 min (MeCN 70.0% w/w, pH 9.5, 5° C.) | Peptide concentration after 5 min (MeCN 70.0% w/w, pH 10.0, 5° C.) | Peptide concentration after 5 min (MeCN 70.0% w/w, pH 10.5, 5° C.) | Peptide concentration after 180 min (MeCN 70.0% w/w, pH 10.5, 5° C.) | Peptide concentration after 5 min (MeCN 70.0% w/w, pH 11.0, 5° C.) | Peptide concentration after 180 min (MeCN 70.0% w/w, pH 11.0, 5° C.)
0.4 mg/mL: Peptide concentration after 24 h (MeCN 70.0% w/w, pH 5.6, 5° C.) | Peptide concentration after 180 min (MeCN 70.0% w/w, pH 7.5, 5° C.) | Peptide concentration after 180 min (MeCN 70.0% w/w, pH 8.0, 5° C.) | Peptide concentration after 180 min (MeCN 70.0% w/w, pH 8.5, 5° C.) | Peptide concentration after 180 min (MeCN 70.0% w/w, pH 9.0, 5° C.) | Peptide concentration after 24 h (MeCN 70.0% w/w, pH 10.0, 5° C.) | Peptide concentration after 24 h (MeCN 70.0% w/w, pH 10.5, 5° C.)
1.3 mg/mL: Peptide concentration after 24 h (MeCN 63.6% w/w, pH 11.0, 5° C.)
0.7 mg/mL: Peptide concentration after 24 h (MeCN 63.6% w/w, pH 10.0, 5° C.) | Peptide concentration after 24 h (MeCN 70.0% w/w, pH 8.5, 5° C.)
0.8 mg/mL: Peptide concentration after 24 h (MeCN 70.0% w/w, pH 7.5, 5° C.)
